Measurements: ChEMBL document CHEMBL2057096, “Discovery of novel 1,2,4-thiadiazole derivatives as potent, orally active agonists of sphingosine 1-phosphate receptor subtype 1 (S1P(1))” (J Med Chem, 2012)
Values after ≈ are worked out from the molar mass of the structure shown. Active and inactive are the calls of the source. No cut-off for these calls is given here.

What was measured:
[1] = Percentage unbound in human plasma; assay type: ADME, cell-free
[2] = species: Homo sapiens; assay: Selectivity ratio of EC50 for S1P3 receptor to EC50 for S1P1 receptor
[3] = biological target: Sphingosine 1-phosphate receptor 3 (Homo sapiens, UniProt Q99500); assay: Agonist activity against S1P3 receptor by cell based FRET assay; assay type: functional
Sphingosine 1-phosphate receptor 3, sequence (Q99500 whole entry): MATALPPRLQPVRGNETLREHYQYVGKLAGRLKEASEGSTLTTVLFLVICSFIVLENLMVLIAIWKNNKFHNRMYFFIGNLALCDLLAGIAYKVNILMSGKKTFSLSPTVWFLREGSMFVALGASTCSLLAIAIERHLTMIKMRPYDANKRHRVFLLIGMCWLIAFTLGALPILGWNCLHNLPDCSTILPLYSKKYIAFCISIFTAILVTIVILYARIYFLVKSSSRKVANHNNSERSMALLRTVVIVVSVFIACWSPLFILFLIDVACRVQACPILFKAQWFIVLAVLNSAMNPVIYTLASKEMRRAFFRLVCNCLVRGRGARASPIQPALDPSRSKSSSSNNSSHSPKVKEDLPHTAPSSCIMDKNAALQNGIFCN

[4] = biological target: Sphingosine 1-phosphate receptor 1 (Homo sapiens, UniProt P21453); assay: Agonist activity against S1P1 receptor by cell based FRET assay; assay type: functional
Sphingosine 1-phosphate receptor 1, sequence (P21453 whole entry): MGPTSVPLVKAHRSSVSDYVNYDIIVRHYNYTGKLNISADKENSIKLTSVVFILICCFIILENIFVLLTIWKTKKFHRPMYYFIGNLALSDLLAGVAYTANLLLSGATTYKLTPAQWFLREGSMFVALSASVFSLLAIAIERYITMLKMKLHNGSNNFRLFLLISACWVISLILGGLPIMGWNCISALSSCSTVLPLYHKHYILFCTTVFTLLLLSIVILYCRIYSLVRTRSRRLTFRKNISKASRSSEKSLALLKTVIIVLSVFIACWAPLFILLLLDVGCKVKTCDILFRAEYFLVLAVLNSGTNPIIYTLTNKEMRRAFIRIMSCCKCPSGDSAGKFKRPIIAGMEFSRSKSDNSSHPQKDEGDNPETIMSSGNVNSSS

[5] = Ratio of drug level in brain to blood in C57BL/6 mouse at 2 mg/kg, ip after 4 hrs; assay type: ADME, organism-based; design: dose 2 mg/kg, route intraperitoneal
[6] = biological target: Cytochrome P450 2C9 (Homo sapiens, UniProt P11712); assay: Inhibition of CYP2C9; assay type: ADME
Cytochrome P450 2C9, sequence (P11712 whole entry): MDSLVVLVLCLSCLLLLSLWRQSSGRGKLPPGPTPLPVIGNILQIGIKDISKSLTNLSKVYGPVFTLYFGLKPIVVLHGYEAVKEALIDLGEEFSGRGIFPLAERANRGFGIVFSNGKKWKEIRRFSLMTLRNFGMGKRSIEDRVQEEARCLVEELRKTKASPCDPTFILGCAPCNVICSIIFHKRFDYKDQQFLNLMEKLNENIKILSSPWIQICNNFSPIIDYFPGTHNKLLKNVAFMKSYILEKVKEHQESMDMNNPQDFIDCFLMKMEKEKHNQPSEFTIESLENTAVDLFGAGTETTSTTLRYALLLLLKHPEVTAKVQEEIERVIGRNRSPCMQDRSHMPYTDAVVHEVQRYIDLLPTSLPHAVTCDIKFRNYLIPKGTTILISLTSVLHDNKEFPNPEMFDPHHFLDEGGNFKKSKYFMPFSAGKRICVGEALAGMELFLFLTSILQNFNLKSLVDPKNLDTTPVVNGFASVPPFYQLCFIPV

[7] = Solubility of the compound; assay type: physicochemical
[8] = tested on: Mus musculus; assay: Decrease in lymphocyte count in mouse acute lymphopenia model at 1 mg/kg, po after 4 hrs by flow cytometry relative to base line; assay type: functional; design: scale not given: the % may be the effect or the level left
[9] = tested on: Mus musculus; assay: Decrease in lymphocyte count in mouse acute lymphopenia model at 1 mg/kg, po after 24 hrs by flow cytometry relative to base line; assay type: functional; design: scale not given: the % may be the effect or the level left
[10] = tested on: Mus musculus; assay: Antiinflammatory activity in C57BL/6 mouse EAE model assessed as decrease in clinical symptoms at 1 mg/kg, po administered qd after 10 days post immunization; assay type: functional, organism-based; design: dose 1 mg/kg
[11] = Half life in mouse; assay type: ADME, organism-based; details: in vivo
[12] = Oral bioavailability in mouse; assay type: ADME, organism-based; details: in vivo
[13] = Ratio of drug level in brain to blood in C57BL/6 mouse at 2 mg/kg, ip after 1 hr; assay type: ADME, organism-based; design: dose 2 mg/kg, route intraperitoneal
[14] = AUC (0 to 24 hrs) in mouse; assay type: ADME, organism-based; design: time < 24 hr; details: plasma
[15] = Permeability of the compound; assay type: ADME; details: not told; read-out: permeability
[16] = Percentage unbound in rat plasma; assay type: ADME, cell-free

Row | Compound | fraction unbound [1] | EC50 [3] [µM] | EC50 [4] [nM] | other results
1 | CCc1c(CN2CC(C(=O)O)C2)cccc1-c1nsc(-c2ccc(OC(C)C)c(Cl)c2)n1 | 0.0096 | > 3.16 | 3.98 | Ratio EC50 [2]: > 1000
2 | CCc1c(CCCC(=O)O)cncc1-c1nsc(-c2ccc(OC(C)C)c(C(F)(F)F)c2)n1 | 0.0012 | – | 25.1 | –
3 | CCc1c(CN2CC(C(=O)O)C2)cccc1-c1nsc(-c2ccc(CC(C)C)c(C#N)c2)n1 | 0.0128 | > 3.16 | 7.94 | Ratio EC50 [2]: > 1000
4 | CCc1c(CCCC(=O)O)cccc1-c1cnc(-c2ccc(OC(C)C)c(C#N)c2)s1 | 0.001 | > 10 | 3.16 | Kp at 4 h [5]: 0.35; IC50 [6]: 3.98 µM; solubility [7]: 125 µg/mL (≈ 288 µM); Activity [8]: 15.3%; Activity [9]: 62.6%; Activity [10]: inactive; half-life [11]: 216 min; bioavailability [12]: 100%; Kp at 1 h [13]: 0.38; AUC(0-t) at 24 h [14]: 8340 ng·h/mL; Papp [15]: 22 ×10⁻⁶ cm/s
5 | CCc1c(CN2CC(C(=O)O)C2)cccc1-c1nsc(-c2ccc(OC(C)C)c(C(F)(F)F)c2)n1 | 0.0026 | 2.51 | 0.251 | Ratio EC50 [2]: > 1000
6 | CCc1c(CCCC(=O)O)cccc1-c1nccc(-c2ccc(OC(C)C)c(C#N)c2)n1 | – | – | > 3160 | –
7 | CCc1c(CCCC(=O)O)cccc1-c1ccc(-c2ccc(OC(C)C)c(C#N)c2)s1 | – | > 10 | 3.98 | Kp at 4 h [5]: 1.5; IC50 [6]: 1.58 µM; solubility [7]: 115 µg/mL (≈ 265 µM); Kp at 1 h [13]: 1; fraction unbound [16]: 0.0002; Papp [15]: 30 ×10⁻⁶ cm/s
8 | CCc1c(CCCC(=O)O)cccc1-c1nc(-c2ccc(OC(C)C)c(C#N)c2)ns1 | – | – | 1.26 | –
9 | CCc1c(CCCC(=O)O)cccc1-c1nsc(-c2ccc(-c3ccccc3)c(C(F)(F)F)c2)n1 | – | – | 5.01 | –
10 | CCc1c(CCCC(=O)O)cccc1-c1nsc(-c2ccc(N3CCCCC3)c(C(F)(F)F)c2)n1 | 1e-05 | – | 2 | –
11 | CCc1c(CCNCC(=O)O)cccc1-c1nsc(-c2ccc(OC(C)C)c(C(F)(F)F)c2)n1 | 0.0013 | > 3.16 | 0.0158 | Ratio EC50 [2]: > 1000
12 | CCc1c(CCCC(=O)O)cccc1-c1ccc(-c2ccc(OC(C)C)c(C#N)c2)cc1 | – | > 10 | 1.58 | Kp at 4 h [5]: 0.95; IC50 [6]: 3.98 µM; solubility [7]: 154 µg/mL (≈ 360 µM); Kp at 1 h [13]: 0.93; fraction unbound [16]: 0.0001; Papp [15]: 31 ×10⁻⁶ cm/s
13 | CCc1c(CCCC(=O)O)cccc1-c1cnc(-c2ccc(OC(C)C)c(C#N)c2)[nH]1 | – | – | > 10000 | –
14 | CCc1c(CCN(C)CC(=O)O)cccc1-c1nsc(-c2ccc(OC(C)C)c(C(F)(F)F)c2)n1 | 0.0021 | > 3.16 | 0.02 | Ratio EC50 [2]: > 1000
15 | CCc1c(CN2CCC(C(=O)O)CC2)cccc1-c1nsc(-c2ccc(OC(C)C)c(C(F)(F)F)c2)n1 | – | > 10 | 15.8 | Ratio EC50 [2]: > 1000; fraction unbound [16]: 0.0038
16 | CCc1c(CCN2CCCCC2)cccc1-c1nsc(-c2ccc(CC(C)C)c(C#N)c2)n1 | 0.00017 | > 10 | 1580 | –
17 | CCc1c(CCCC(=O)O)cccc1-c1nsc(-c2ccc(N3CCOCC3)c(C(F)(F)F)c2)n1 | – | – | 126 | fraction unbound [16]: 0.0006
18 | CCc1c(CCCC(=O)O)cccc1-c1cc(-c2ccc(OC(C)C)c(C#N)c2)no1 | – | – | 5.01 | –
19 | CCc1c(CCCC(=O)O)cccc1-c1ccnc(-c2ccc(OC(C)C)c(C#N)c2)n1 | – | – | > 3160 | –
20 | CCc1c(CCCC(=O)O)cncc1-c1nsc(-c2ccc(CC(C)C)c(C#N)c2)n1 | 0.0014 | – | 398 | –
21 | CCc1c(CCCC(=O)O)cccc1-c1cc(-c2ccc(OC(C)C)c(C#N)c2)ncn1 | – | – | > 3160 | –
22 | CCc1c(CN(C)CC(=O)O)cccc1-c1nsc(-c2ccc(OC(C)C)c(C(F)(F)F)c2)n1 | 0.0049 | > 10 | 10 | Ratio EC50 [2]: > 1000
23 | CCc1c(CCCC(=O)O)cccc1-c1cnn(-c2ccc(OC(C)C)c(C#N)c2)c1 | – | – | 631 | –

Row | Compound | fraction unbound [1] | EC50 [3] [µM] | EC50 [4] [nM] | other results
24 | CCc1c(CCCC(=O)O)cccc1-c1ncc(-c2ccc(OC(C)C)c(C#N)c2)cn1 | – | – | 25.1 | –
25 | CCc1c(CCCC(=O)O)cccc1-c1nsc(-c2cnc(OC(C)C)c(C(F)(F)F)c2)n1 | 0.00031 | – | 5.01 | –
26 | CCc1c(CCN2CCC(C(=O)O)CC2)cccc1-c1nsc(-c2ccc(OC(C)C)c(C(F)(F)F)c2)n1 | 0.0017 | 2.51 | 0.1 | Ratio EC50 [2]: > 1000
27 | CCc1c(CN(C)C(C)(C)C(=O)O)cccc1-c1nsc(-c2ccc(OC(C)C)c(C(F)(F)F)c2)n1 | 4e-05 | > 10 | 100 | Ratio EC50 [2]: > 1000
28 | CCc1c(CCN2CC(C(=O)O)C2)cccc1-c1nsc(-c2ccc(OC(C)C)c(C(F)(F)F)c2)n1 | 0.0025 | 3.16 | 0.251 | Ratio EC50 [2]: > 1000
29 | CCc1c(CCN2CC(C(=O)O)C2)cccc1-c1nsc(-c2ccc(CC(C)C)c(C#N)c2)n1 | 0.0071 | 2.51 | 0.794 | Ratio EC50 [2]: > 1000
30 | CCc1c(CCCC(=O)O)cccc1-c1cc(-c2ccc(OC(C)C)c(C#N)c2)n[nH]1 | – | – | > 10000 | –
31 | CCc1c(CCCC(=O)O)cccc1-c1ccc(-c2ccc(OC(C)C)c(C#N)c2)nn1 | – | – | 631 | –
32 | CCc1c(CCCC(=O)O)cccc1-c1nsc(-c2ccc(OC(C)C)c(Cl)c2)n1 | 0.0015 | – | 3.98 | –
33 | CCc1c(CCCC(=O)O)cncc1-c1nsc(-c2ccc(OC(C)C)c(Cl)c2)n1 | 0.0019 | – | 251 | –
34 | CCc1c(CCN2CC(O)C2)cccc1-c1nsc(-c2ccc(CC(C)C)c(C#N)c2)n1 | 0.00091 | > 3.16 | 200 | –
35 | CCc1c(CCCC(=O)O)cccc1-c1nsc(-c2ccc(CC(C)C)c(C#N)c2)n1 | 0.0003 | – | 1.26 | –
36 | CCc1c(CCCC(=O)O)cccc1-c1nsc(-c2ccc(N3CCN(C)CC3)c(C(F)(F)F)c2)n1 | – | – | > 3160 | fraction unbound [16]: 0.0032
37 | CCc1c(CCCC(=O)O)cccc1-c1ccc(-c2ccc(OC(C)C)c(C#N)c2)nc1 | – | – | 31.6 | –
38 | CCc1c(-c2nsc(-c3ccc(CC(C)C)c(C#N)c3)n2)ccnc1CCCC(=O)O | 0.0019 | – | 158 | –
39 | CCc1c(CCCC(=O)O)cccc1-c1ccn(-c2ccc(OC(C)C)c(C#N)c2)n1 | – | – | 2510 | –
40 | CCc1c(CCCC(=O)O)cccc1-c1nnc(-c2ccc(OC(C)C)c(C#N)c2)o1 | – | > 10 | 3.16 | Kp at 4 h [5]: 0.09; IC50 [6]: 7.94 µM; solubility [7]: 187 µg/mL (≈ 446 µM); Kp at 1 h [13]: 0.11; fraction unbound [16]: 0.0021; Papp [15]: 24 ×10⁻⁶ cm/s
41 | CCc1c(CCN2CC(C(=O)O)C2)cccc1-c1nsc(-c2ccc(OC(C)C)c(Cl)c2)n1 | 0.0067 | > 3.16 | 0.251 | Ratio EC50 [2]: > 1000
42 | CCc1c(CCCC(=O)O)cccc1-c1cccc(-c2ccc(OC(C)C)c(C#N)c2)n1 | – | – | > 3160 | –
43 | CCc1c(CCCC(=O)O)cccc1-c1nsc(-c2ccc(OC(C)C)c(C(F)(F)F)c2)n1 | 0.00014 | – | 2 | –
44 | CCc1c(CCCC(=O)O)cccc1-c1ccc(-c2ccc(OC(C)C)c(C#N)c2)cn1 | – | – | 31.6 | –
45 | CCCCCCCCc1ccc(CCC(N)(CO)CO)cc1 | – | – | – | Activity [10]: Active
